From US20230373937A1, “INHIBITORS OF SPINSTER HOMOLOG 2 (SPNS2) FOR USE IN THERAPY” (University of Virginia Patent Foundation, priority 2020, published 2023)
Where a name gives a salt, the structure may show the parent alone.

Target: T1, SPNS2 (Mus musculus, UniProt Q91VM4)
T1 construct: expressed in transfected cells; host or cells: HeLa or U937 cells
T1 sequence (Q91VM4 1-549): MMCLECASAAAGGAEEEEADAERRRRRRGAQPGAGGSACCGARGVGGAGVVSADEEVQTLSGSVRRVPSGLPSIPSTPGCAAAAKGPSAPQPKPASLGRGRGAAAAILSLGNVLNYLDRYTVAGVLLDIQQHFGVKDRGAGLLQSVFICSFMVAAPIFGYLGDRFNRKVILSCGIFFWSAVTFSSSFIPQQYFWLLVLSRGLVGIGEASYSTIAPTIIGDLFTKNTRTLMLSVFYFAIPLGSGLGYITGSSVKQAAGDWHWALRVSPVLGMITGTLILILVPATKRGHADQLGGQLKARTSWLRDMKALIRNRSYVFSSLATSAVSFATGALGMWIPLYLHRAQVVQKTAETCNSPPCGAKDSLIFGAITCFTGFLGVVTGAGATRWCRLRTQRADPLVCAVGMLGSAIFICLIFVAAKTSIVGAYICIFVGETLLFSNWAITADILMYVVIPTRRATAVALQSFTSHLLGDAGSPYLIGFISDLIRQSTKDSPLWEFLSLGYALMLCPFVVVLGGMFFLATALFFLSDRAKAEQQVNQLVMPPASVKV
Test: S1P transporter assay: S1P release from whole cells expressing SPNS2
Format: cell-based
Conditions: HeLa or U937 cells expressing mouse SPNS2; 18 hours; S1P in media measured by LC-MS; read-out: IC50 (in vitro inhibition against SPNS2)
Procedure: Transporter assays are vectorial and therefore require measurement of the transported analyte in different compartments. The S1P transporter SPNS2 only exports S1P, which obviates measuring uptake of S1P into transporter-expressing cells. Thus, transporter activity was determined by quantifying S1P release from whole cells expressing SPNS2. SPNS2 inhibitor potency was assessed using whole cell assays. HeLa or U937 cells expressing mouse SPNS2 were used to determine inhibitor potency (IC50). Cells were plated onto 12 well plates and assayed when the cell monolayers became confluent. Cell growth media (RPMI-1640 containing 10% fetal bovine serum) was replaced with 2 mL of serum-free media (RPMI-1640) containing fatty acid free bovine serum albumin (BSA) (0.2% w/v) and supplemented with 4-deoxypyridoxine (DOP) (1 mM), NaF (2 mM), Na3VO4 (0.2 mM) to inhibit S1P degradation. Test articles (1×10-9-1×10^-4 M) were assayed in duplicate or triplicate. After 18 hours, media was collected, an internal recovery standard (0.005 mL of 5×10^-7 M deuterated (d7) S1P in methanol) was added, the BSA was precipitated with trichloroacetic acid and the bound S1P extracted with methanol. S1P and S1P-d7 were measured by liquid chromatography mass spectrometry. Inhibitor potency at the human SPNS2 ortholog was determined by an analogous assay using U-937 cells, which endogenously express human SPNS2.

| SMILES | IC50 |
| --- | --- |
| CCCCCCCCCCc1ccc(-c2noc(CNC(=O)[C@H](C)N)n2)cc1 [Compound 9a, (S)-2-amino-N-((3-(4-decylphenyl)-1,2,4-oxadiazol-5-yl)methyl)propanamide hydrochloride] | ≤ 2 µM |
| CCCCCCCCCCc1ccc(-c2noc(CNC(=O)[C@@H](N)CCCC(=O)OC)n2)cc1 [Compound 9aa, methyl (S)-5-amino-6-(((3-(4-decylphenyl)-1,2,4-oxadiazol-5-yl)methyl)amino)-6-oxohexanoate hydrochloride] | ≤ 2 µM |
| CCCCCCCCCCc1ccc(-c2noc(CNC(=O)CN(C)C)n2)cc1 [Compound 9ab, N-((3-(4-decylphenyl)-1,2,4-oxadiazol-5-yl)methyl)-2-(dimethylamino)acetamide hydrochloride] | > 2 µM |
| CCCCCCCCCCc1ccc(-c2noc(CNC(=O)[C@@H](N)Cc3ccccc3)n2)cc1 [Compound 9ac, (S)-2-amino-N-((3-(4-decylphenyl)-1,2,4-oxadiazol-5-yl)methyl)-3-phenylpropanamide hydrochloride] | > 2 µM |
| CCCCCCCCCCc1ccc(-c2noc(CNC(=O)[C@@H](N)CC(C)C)n2)cc1 [Compound 9ad, (S)-2-amino-N-((3-(4-decylphenyl)-1,2,4-oxadiazol-5-yl)methyl)-4-methylpentanamide hydrochloride] | > 2 µM |
| CCCCCCCCCCc1ccc(-c2noc([C@@H]3CCN(C(=O)[C@@H](N)C(C)C)C3)n2)cc1 [Compound 9ai, (S)-2-amino-1-((R)-3-(3-(4-decylphenyl)-1,2,4-oxadiazol-5-yl)pyrrolidin-1-yl)-3-methylbutan-1-one 2,2,2-trifluoroacetate] | ≤ 2 µM |
| CCCCCCCCCCc1ccc(-c2noc([C@@H]3CCN(C(=O)[C@@H](N)CO)C3)n2)cc1 [Compound 9aj] | > 2 µM |
| CCCCCCCCCCc1ccc(-c2noc([C@@H]3CCN(C(=O)[C@H](C)N)C3)n2)cc1 [Compound 9ak, (S)-2-amino-1-((R)-3-(3-(4-decylphenyl)-1,2,4-oxadiazol-5-yl)pyrrolidin-1-yl)propan-1-one 2,2,2-trifluoroacetate] | ≤ 2 µM |
| CCCCCCCCCCc1ccc(-c2noc([C@@H]3CCN(C(=O)CN)C3)n2)cc1 [Compound 9al, (R)-2-amino-1-(3-(3-(4-decylphenyl)-1,2,4-oxadiazol-5-yl)pyrrolidin-1-yl)ethan-1-one 2,2,2-trifluoroacetate] | > 2 µM |
| CCCCCCCCCCc1ccc(-c2noc(CNC(=O)CN3CCNCC3)n2)cc1 [Compound 9c, N-((3-(4-decylphenyl)-1,2,4-oxadiazol-5-yl)methyl)-2-(piperazin-1-yl)acetamide hydrochloride] | > 2 µM |
| CCCCCCCCCCc1ccc(-c2noc(CNC(=O)CCCN)n2)cc1 [Compound 9d, 4-amino-N-((3-(4-decylphenyl)-1,2,4-oxadiazol-5-yl)methyl)butanamide hydrochloride] | ≤ 2 µM |
| CCCCCCCCCCc1ccc(-c2noc(CNC(=O)CCN)n2)cc1 [Compound 9e, 3-amino-N-((3-(4-decylphenyl)-1,2,4-oxadiazol-5-yl)methyl)propanamide hydrochloride] | > 2 µM |
| CCCCCCCCCCc1ccc(-c2noc(CNC(=O)[C@@H](N)C(C)C)n2)cc1 [Compound 9f, (S)-2-amino-N-((3-(4-decylphenyl)-1,2,4-oxadiazol-5-yl)methyl)-3-methylbutanamide hydrochloride] | > 2 µM |
| CCCCCCCCCCc1ccc(-c2noc(CNC(=O)CCCCN)n2)cc1 [Compound 9g, 5-amino-N-((3-(4-decylphenyl)-1,2,4-oxadiazol-5-yl)methyl)pentanamide hydrochloride] | ≤ 2 µM |
| CCCCCCCCCCc1ccc(-c2noc(CCNC(=O)CN)n2)cc1 [Compound 9h, 2-amino-N-(2-(3-(4-decylphenyl)-1,2,4-oxadiazol-5-yl)ethyl)acetamide hydrochloride] | ≤ 2 µM |
| CCCCCCCCCCc1ccc(-c2noc(CNC(=O)CNC)n2)cc1 [Compound 9l, N-((3-(4-decylphenyl)-1,2,4-oxadiazol-5-yl)methyl)-2-(methylamino)acetamide hydrochloride] | ≤ 2 µM |
| CCCCCCCCCCc1ccc(-c2noc(CNC(=O)[C@@H](N)[C@@H](C)CC)n2)cc1 [Compound 9n, (2S,3S)-2-amino-N-((3-(4-decylphenyl)-1,2,4-oxadiazol-5-yl)methyl)-3-methylpentanamide hydrochloride] | > 2 µM |
| CCCCCCCCCCc1ccc(-c2noc(CNC(=O)[C@@H](N)CO)n2)cc1 [Compound 9s, (S)-2-amino-N-((3-(4-decylphenyl)-1,2,4-oxadiazol-5-yl)methyl)-3-hydroxypropanamide hydrochloride] | > 2 µM |

Continued, values first:

| IC50 | SMILES |
| --- | --- |
| > 2 µM | CCCCCCCCCCc1ccc(-c2noc(CNC(=O)[C@@H]3C[C@@H](F)CN3)n2)cc1 [Compound 9ae, (2S,4R)—N-((3-(4-decylphenyl)-1,2,4-oxadiazol-5-yl)methyl)-4-fluoropyrrolidine-2-carboxamide hydrochloride] |
| > 2 µM | CCCCCCCCCCc1ccc(-c2noc(CNC(=O)C3(N)CC3)n2)cc1 [Compound 9af, 1-amino-N-((3-(4-decylphenyl)-1,2,4-oxadiazol-5-yl)methyl)cyclopropane-1-carboxamide hydrochloride] |
| ≤ 2 µM | CCCCCCCCCCc1ccc(-c2noc(CNC(=O)[C@@H]3CCCNC3)n2)cc1 [Compound 9ag, (R)—N-((3-(4-decylphenyl)-1,2,4-oxadiazol-5-yl)methyl)piperidine-3-carboxamide hydrochloride] |
| ≤ 2 µM | CCCCCCCCCCc1ccc(-c2noc(CNC(=O)[C@@H]3CC[C@@H](N)C3)n2)cc1 [Compound 9ah, (1R,3R)-3-amino-N-((3-(4-decylphenyl)-1,2,4-oxadiazol-5-yl)methyl)cyclopentane-1-carboxamide hydrochloride] |
| > 2 µM | CCCCCCCCCCc1ccc(-c2noc(CNC(=O)CN)n2)cc1 [Compound 9b, 2-amino-N-((3-(4-decylphenyl)-1,2,4-oxadiazol-5-yl)methyl)acetamide hydrochloride] |
| ≤ 2 µM | CCCCCCCCCCc1ccc(-c2noc(CNC(=O)[C@@H]3CCCCN3)n2)cc1 [Compound 9i, (S)—N-((3-(4-decylphenyl)-1,2,4-oxadiazol-5-yl)methyl)piperidine-2-carboxamide hydrochloride] |
| ≤ 2 µM | CCCCCCCCCCc1ccc(-c2noc(CNC(=O)[C@@H]3CCNC3)n2)cc1 [Compound 9j, (R)—N-((3-(4-decylphenyl)-1,2,4-oxadiazol-5-yl)methyl)pyrrolidine-3-carboxamide hydrochloride] |
| ≤ 2 µM | CCCCCCCCCCc1ccc(-c2noc(CNC(=O)C[C@@H]3CCNC3)n2)cc1 [Compound 9k, (S)—N-((3-(4-decylphenyl)-1,2,4-oxadiazol-5-yl)methyl)-2-(pyrrolidin-3-yl)acetamide hydrochloride] |
| ≤ 2 µM | CCCCCCCCCCc1ccc(-c2noc(CNC(=O)[C@@H]3CCCN3)n2)cc1 [Compound 9m, (S)—N-((3-(4-decylphenyl)-1,2,4-oxadiazol-5-yl)methyl)pyrrolidine-2-carboxamide hydrochloride] |
| > 2 µM | CCCCCCCCCCc1ccc(-c2noc(CNC(=O)C[C@@H]3CCCNC3)n2)cc1 [Compound 9o, (S)—N-((3-(4-decylphenyl)-1,2,4-oxadiazol-5-yl)methyl)-2-(piperidin-3-yl)acetamide hydrochloride] |
| > 2 µM | CCCCCCCCCCc1ccc(-c2noc(CNC(=O)C3CCNCC3)n2)cc1 [Compound 9p, N-((3-(4-decylphenyl)-1,2,4-oxadiazol-5-yl)methyl)piperidine-4-carboxamide hydrochloride] |
| > 2 µM | CCCCCCCCCCc1ccc(-c2noc(CNC(=O)[C@H]3CNCCO3)n2)cc1 [Compound 9q, (R)—N-((3-(4-decylphenyl)-1,2,4-oxadiazol-5-yl)methyl)morpholine-2-carboxamide hydrochloride] |
| ≤ 2 µM | CCCCCCCCCCc1ccc(-c2noc(CNC(=O)[C@@H]3CCC[C@H](N)C3)n2)cc1 [Compound 9r, (1R,3S)-3-amino-N-((3-(4-decylphenyl)-1,2,4-oxadiazol-5-yl)methyl)cyclohexane-1-carboxamide hydrochloride] |
| > 2 µM | CCCCCCCCCCc1ccc(-c2noc(CNC(=O)[C@H]3CCCCN3)n2)cc1 [Compound 9t, (R)—N-((3-(4-decylphenyl)-1,2,4-oxadiazol-5-yl)methyl)piperidine-2-carboxamide hydrochloride] |
